Results taken from the supplement of paper PMC10307832.

Assays:
Test in all cases: relative viability (nuclei count vs DMSO), 5 days (fraction); higher = more cells survive
[1] = compound: C1=CC=C(C(=C1)C2=CC=C(C=C2)C3=CSC4=C3C(=C(C(=O)N4)C#N)O)O
In short: (§1)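 MetaXpress counted nuclei in 4× images of lung cancer cell lines that had been fixed, permeabilised and Hoechst-stained in one step. Before that, cells in 1536-well plates were kept overnight at 37 °C, pinned with five √10-spaced library-drug doses on vehicle-anchored plates, and cultured 5 days without medium change. Viability takes treated-well nuclei over vehicle-well nuclei and uses the median across plates. Plates were accepted only at control CV below 25% and at least one doubling.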

Ricolinostat = compound: O=C(CCCCCCNC(=O)c1cnc(N(c2ccccc2)c2ccccc2)nc1)NO [Ricolinostat]
In short: as §1

TGX 221 = compound: CC1=CN2C(=O)C=C(N=C2C(=C1)C(C)NC3=CC=CC=C3)N4CCOCC4 [TGX 221]
In short: as §1

Ricolinostat + Foretinib = compound: O=C(CCCCCCNC(=O)c1cnc(N(c2ccccc2)c2ccccc2)nc1)NO [Ricolinostat] + COc1cc2c(Oc3ccc(NC(=O)C4(C(=O)Nc5ccc(F)cc5)CC4)cc3F)ccnc2cc1OCCCN1CCOCC1 [Foretinib] (partner 0.25 µM)
In short: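 Lung cancer cell lines in 1536-well plates got either a single drug or a fixed anchor-drug dose together with five library-drug doses (not always all listed) in √10 steps, by pin tool, on the day after seeding. Nuclei were counted after 5 days, and relative viability is the treated-to-vehicle ratio of nuclei counts. Values are medians of duplicate plates.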

CAL-12T gave a relative viability ([1]; 0.08 µM) of 0.894, a relative viability ([1]; 0.253 µM) of 1.24 and a relative viability ([1]; 0.8 µM) of 0.946. For the same cell line, the relative viability ([1]; 2.53 µM) was 0.929, the relative viability ([1]; 8 µM) was 0.747 and the relative viability (Ricolinostat; 0.08 µM) was 0.835. The relative viability (Ricolinostat; 0.253 µM) was 0.953, the relative viability (Ricolinostat; 0.8 µM) was 0.953 and the relative viability (Ricolinostat; 2.53 µM) was 1.01. The relative viability (TGX 221; 0.08 µM) was 0.963, the relative viability (TGX 221; 0.253 µM) was 0.936 and the relative viability (TGX 221; 0.8 µM) was 0.992. The relative viability (TGX 221; 2.53 µM) was 0.917, the relative viability (TGX 221; 8 µM) was 1.05 and the relative viability (Ricolinostat + Foretinib; first compound 0.08 µM) was 1.04. For the same cell line, the relative viability (Ricolinostat + Foretinib; first compound 0.253 µM) was 1.17, the relative viability (Ricolinostat + Foretinib; first compound 0.8 µM) was 1.12 and the relative viability (Ricolinostat + Foretinib; first compound 2.53 µM) was 1.35.

In the case of NCI-H23, the relative viability ([1]; 0.08 µM) is reported as 0.948, the relative viability ([1]; 0.253 µM) is reported as 1.03 and the relative viability ([1]; 0.8 µM) is reported as 1.07. It also gave a relative viability ([1]; 2.53 µM) of 0.978, a relative viability ([1]; 8 µM) of 0.805 and a relative viability (Ricolinostat; 0.08 µM) of 0.779. The relative viability (Ricolinostat; 0.253 µM) was 1.03, the relative viability (Ricolinostat; 0.8 µM) was 0.851 and the relative viability (Ricolinostat; 2.53 µM) was 0.895. It also gave a relative viability (TGX 221; 0.08 µM) of 0.993, a relative viability (TGX 221; 0.253 µM) of 0.861 and a relative viability (TGX 221; 0.8 µM) of 0.909. The relative viability (TGX 221; 2.53 µM) was 0.825, the relative viability (TGX 221; 8 µM) was 0.932 and the relative viability (Ricolinostat + Foretinib; first compound 0.08 µM) was 0.999. It also gave a relative viability (Ricolinostat + Foretinib; first compound 0.253 µM) of 0.898, a relative viability (Ricolinostat + Foretinib; first compound 0.8 µM) of 0.97 and a relative viability (Ricolinostat + Foretinib; first compound 2.53 µM) of 1.13.

With SW 900 the relative viability ([1]; 0.08 µM) was 0.81, the relative viability ([1]; 0.253 µM) was 1.22 and the relative viability ([1]; 0.8 µM) was 0.809. For the same cell line, the relative viability ([1]; 2.53 µM) was 0.773, the relative viability ([1]; 8 µM) was 0.56 and the relative viability (Ricolinostat; 0.08 µM) was 0.591. For the same cell line, the relative viability (Ricolinostat; 0.253 µM) was 0.832, the relative viability (Ricolinostat; 0.8 µM) was 0.647 and the relative viability (Ricolinostat; 2.53 µM) was 0.74. It also gave a relative viability (TGX 221; 0.08 µM) of 0.839, a relative viability (TGX 221; 0.253 µM) of 0.938 and a relative viability (TGX 221; 0.8 µM) of 0.742. The relative viability (TGX 221; 2.53 µM) was 0.608, the relative viability (TGX 221; 8 µM) was 0.601 and the relative viability (Ricolinostat + Foretinib; first compound 0.08 µM) was 0.733. For the same cell line, the relative viability (Ricolinostat + Foretinib; first compound 0.253 µM) was 0.883, the relative viability (Ricolinostat + Foretinib; first compound 0.8 µM) was 0.886 and the relative viability (Ricolinostat + Foretinib; first compound 2.53 µM) was 0.989.

With NCI-H2228 the relative viability ([1]; 0.08 µM) was 1.08, the relative viability ([1]; 0.253 µM) was 1.1 and the relative viability ([1]; 0.8 µM) was 1.19. The relative viability ([1]; 2.53 µM) was 1.07, the relative viability ([1]; 8 µM) was 0.782 and the relative viability (Ricolinostat; 0.08 µM) was 0.99. The relative viability (Ricolinostat; 0.253 µM) was 0.981, the relative viability (Ricolinostat; 0.8 µM) was 0.944 and the relative viability (Ricolinostat; 2.53 µM) was 0.921. For the same cell line, the relative viability (TGX 221; 0.08 µM) was 0.831, the relative viability (TGX 221; 0.253 µM) was 0.97 and the relative viability (TGX 221; 0.8 µM) was 1.04. It also gave a relative viability (TGX 221; 2.53 µM) of 0.846, a relative viability (TGX 221; 8 µM) of 0.996 and a relative viability (Ricolinostat + Foretinib; first compound 0.08 µM) of 0.754. It also gave a relative viability (Ricolinostat + Foretinib; first compound 0.253 µM) of 1.04, a relative viability (Ricolinostat + Foretinib; first compound 0.8 µM) of 0.783 and a relative viability (Ricolinostat + Foretinib; first compound 2.53 µM) of 0.738.

In the case of IA-LM, the relative viability ([1]; 0.08 µM) is reported as 0.725, the relative viability ([1]; 0.253 µM) is reported as 1.45 and the relative viability ([1]; 0.8 µM) is reported as 1.04. For the same cell line, the relative viability ([1]; 2.53 µM) was 1.15, the relative viability ([1]; 8 µM) was 0.655 and the relative viability (Ricolinostat; 0.08 µM) was 0.657. The relative viability (Ricolinostat; 0.253 µM) was 0.924, the relative viability (Ricolinostat; 0.8 µM) was 0.797 and the relative viability (Ricolinostat; 2.53 µM) was 0.777. For the same cell line, the relative viability (TGX 221; 0.08 µM) was 0.883, the relative viability (TGX 221; 0.253 µM) was 0.96 and the relative viability (TGX 221; 0.8 µM) was 1.07. The relative viability (TGX 221; 2.53 µM) was 0.981, the relative viability (TGX 221; 8 µM) was 0.966 and the relative viability (Ricolinostat + Foretinib; first compound 0.08 µM) was 0.959. It also gave a relative viability (Ricolinostat + Foretinib; first compound 0.253 µM) of 1.01, a relative viability (Ricolinostat + Foretinib; first compound 0.8 µM) of 1.09 and a relative viability (Ricolinostat + Foretinib; first compound 2.53 µM) of 0.932.

NCI-H661 showed a relative viability ([1]; 0.08 µM) of 1.11, a relative viability ([1]; 0.253 µM) of 1.03 and a relative viability ([1]; 0.8 µM) of 1.03. For the same cell line, the relative viability ([1]; 2.53 µM) was 0.97, the relative viability ([1]; 8 µM) was 0.834 and the relative viability (Ricolinostat; 0.08 µM) was 0.836. For the same cell line, the relative viability (Ricolinostat; 0.253 µM) was 0.981, the relative viability (Ricolinostat; 0.8 µM) was 1.02 and the relative viability (Ricolinostat; 2.53 µM) was 0.803. It also gave a relative viability (TGX 221; 0.08 µM) of 1.02, a relative viability (TGX 221; 0.253 µM) of 1.02 and a relative viability (TGX 221; 0.8 µM) of 0.971. The relative viability (TGX 221; 2.53 µM) was 0.999, the relative viability (TGX 221; 8 µM) was 0.846 and the relative viability (Ricolinostat + Foretinib; first compound 0.08 µM) was 0.849. The relative viability (Ricolinostat + Foretinib; first compound 0.253 µM) was 0.983, the relative viability (Ricolinostat + Foretinib; first compound 0.8 µM) was 1 and the relative viability (Ricolinostat + Foretinib; first compound 2.53 µM) was 0.81.
